# Data reported in publication PMC10301393 (Viruses, 2023).
# pEC50, pIC50: −log10 of the molar value.
# What was measured:
# [1] = test system: SARS-CoV 3CL protease (3CLpro); details: cited from earlier work
# SARS-CoV = details: Vero E6 cells; cited from earlier work
# MRC-5 cells = test: Cell morphology in photonic microscope observation; format: cell-based, human; details: antiviral assay
# [2] = test system: human coronavirus 229E (HCoV 229E); test: Anti-HCoV 229E assay: reduction in viral titer; format: cell-based, human coronavirus 229E in MRC-5 human lung fibroblast; details: MRC-5 cells, compound at 3 μg/mL, 72 h, Figure 3 (n = 1)
# [3] = test system: human coronavirus 229E (HCoV 229E); test: Anti-HCoV 229E assay: reduction in virus-induced cytopathogenic effect; format: cell-based, human coronavirus 229E in MRC-5 human lung fibroblast; details: MRC-5 cells, compound at 3 μg/mL (16: 6.7 μM), MOIs 0.01–0.001, 72 h, Figure 4 (n = 3)
# SARS-CoV-2 = test system: SARS-CoV-2; parameters: method as in earlier work; details: cited from earlier work
compound,measurement,setting,value
"CC(C)c1cc2c(cc1O)[C@@]1(C)CCCC(C)(C)[C@@H]1CC2 [Compound 1, (+)-ferruginol]",inhibition for SARS-CoV 3CL protease,[1]; below 100 μM,did not show inhibition
same,pIC50,[1],4.30
same,pEC50,SARS-CoV,5.86
"CC(=O)Oc1cc2c(cc1C(C)C)C=C[C@H]1C(C)(C)[C@@H](OC(C)=O)CC[C@]21C [Compound 2, 3β,12-diacetoxyabieta-6,8,11,13-tetraene, reference compound]",pEC50,SARS-CoV,5.80
"CC(C)c1cc2c(cc1O)[C@@]1(C)CCC[C@@](C)(CN3C(=O)c4ccccc4C3=O)[C@@H]1CC2 [Compound 3, 18-(phthalimid-2-yl) ferruginol]",modification of the cell morphology,MRC-5 cells,induced modification of the cell morphology
same,reduction in the viral titer,[2],important reductions in the viral titer
"C=C(CO)c1ccc2c(c1)CC[C@H]1[C@@](C)(C(=O)O)CCC[C@]21C [Compound 7, jiadifenoic acid C, reference compound]",reduction in the viral-induced cytopathogenic effect (CPE),[3],no activity
CC(C)c1cc2c(cc1O)[C@@]1(C)CCC[C@@](C)(CO)[C@@H]1CC2 [Compound 12],reduction in the viral titer,[2],~0.5 log
"CC(C)c1cc2c(cc1O)[C@@]1(C)CCC[C@@](C)(CN)[C@@H]1CC2 [Compound 14, 12-hydroxydehydroabietylamine]",reduction in the viral-induced cytopathogenic effect (CPE),[3],reduce the cytopathogenic effect
"CC(C)c1cc2c(cc1O)[C@@]1(C)CCC[C@@](C)(CN3C(=O)c4cccc(F)c4C3=O)[C@@H]1CC2 [Compound 15, 12-Hydroxy-N,N-(3-fluorophthaloyl)dehydroabietylamine]",modification of the cell morphology,MRC-5 cells,induced modification of the cell morphology
"CC(C)c1cc2c(cc1O)[C@@]1(C)CCC[C@@](C)(CN3C(=O)c4ccc(F)cc4C3=O)[C@@H]1CC2 [Compound 16, 12-Hydroxy-N,N-(4-fluorophthaloyl)dehydroabietylamine]",reduction in the viral titer,[2],approximately 2 log
Cc1coc2c1C(=O)C(=O)c1c-2ccc2c1CCCC2(C)C [tanshinone IIA],IC50 (anti-SARS-CoV-2 activity),SARS-CoV-2,4.08 µg/mL
